Our source for the AC50, EC50 and IC50 values is ChEMBL document CHEMBL1201862, “PubChem BioAssay data set” (2004).

The source made the active and inactive calls.

Holding throughout (format): functional
The target in assay [1] is T1, Replicative DNA helicase DnaB (Mycobacterium tuberculosis, UniProt P9WMR3).
T1 sequence (P9WMR3 whole entry): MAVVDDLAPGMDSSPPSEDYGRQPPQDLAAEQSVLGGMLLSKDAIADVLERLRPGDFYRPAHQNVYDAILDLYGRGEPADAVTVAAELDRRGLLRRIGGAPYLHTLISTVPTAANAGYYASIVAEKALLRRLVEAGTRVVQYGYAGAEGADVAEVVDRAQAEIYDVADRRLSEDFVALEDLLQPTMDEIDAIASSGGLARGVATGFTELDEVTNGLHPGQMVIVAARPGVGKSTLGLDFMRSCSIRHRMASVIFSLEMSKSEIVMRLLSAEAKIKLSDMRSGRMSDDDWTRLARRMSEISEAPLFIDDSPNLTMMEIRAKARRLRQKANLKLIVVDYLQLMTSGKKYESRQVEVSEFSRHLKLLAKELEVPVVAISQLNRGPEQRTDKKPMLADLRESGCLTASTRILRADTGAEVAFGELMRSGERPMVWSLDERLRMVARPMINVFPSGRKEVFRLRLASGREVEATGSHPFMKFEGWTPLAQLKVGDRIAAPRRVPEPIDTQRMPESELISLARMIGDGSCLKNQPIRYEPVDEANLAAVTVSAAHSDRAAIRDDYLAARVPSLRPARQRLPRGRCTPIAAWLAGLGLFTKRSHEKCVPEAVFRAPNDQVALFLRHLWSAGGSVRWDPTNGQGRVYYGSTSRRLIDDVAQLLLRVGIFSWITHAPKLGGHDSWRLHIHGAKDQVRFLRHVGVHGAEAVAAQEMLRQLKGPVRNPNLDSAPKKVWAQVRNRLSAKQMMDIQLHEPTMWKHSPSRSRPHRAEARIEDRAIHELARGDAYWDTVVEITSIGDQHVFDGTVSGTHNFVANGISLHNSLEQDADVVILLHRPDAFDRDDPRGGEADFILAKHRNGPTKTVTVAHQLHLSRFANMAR
In words: DnaB intein splicing inhibitors, dose response, biochemical, cell-free fluorescence (AID 449749).

The target of a further assay is T2, Protein RecA (Mycobacterium tuberculosis, UniProt P9WHJ3).
T2 sequence (P9WHJ3 whole entry): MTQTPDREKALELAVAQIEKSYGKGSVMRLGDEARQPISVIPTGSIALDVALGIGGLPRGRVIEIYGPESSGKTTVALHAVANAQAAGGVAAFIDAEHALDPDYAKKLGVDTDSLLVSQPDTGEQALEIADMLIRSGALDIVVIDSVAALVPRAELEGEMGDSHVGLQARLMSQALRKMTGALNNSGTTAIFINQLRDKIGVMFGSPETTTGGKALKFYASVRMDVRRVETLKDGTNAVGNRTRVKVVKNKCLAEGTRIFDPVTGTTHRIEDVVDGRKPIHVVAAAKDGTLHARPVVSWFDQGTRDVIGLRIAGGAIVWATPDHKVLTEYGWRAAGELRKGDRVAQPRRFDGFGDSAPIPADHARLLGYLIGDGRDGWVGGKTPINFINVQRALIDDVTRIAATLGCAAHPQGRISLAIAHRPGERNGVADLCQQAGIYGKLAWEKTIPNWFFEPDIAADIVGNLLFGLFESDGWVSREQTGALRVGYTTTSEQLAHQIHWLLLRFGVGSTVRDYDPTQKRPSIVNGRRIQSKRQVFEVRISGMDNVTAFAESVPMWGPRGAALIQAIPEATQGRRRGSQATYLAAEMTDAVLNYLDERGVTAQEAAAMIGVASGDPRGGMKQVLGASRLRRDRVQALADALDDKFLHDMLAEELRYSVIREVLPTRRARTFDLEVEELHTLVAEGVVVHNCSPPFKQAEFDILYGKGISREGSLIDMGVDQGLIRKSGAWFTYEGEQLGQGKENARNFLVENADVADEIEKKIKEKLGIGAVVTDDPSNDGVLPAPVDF
In words: Fluorescence Cell-Free Homogeneous Dose Retest to Identify Inhibitors of RecA-Intein Splicing Activity. [Related pubchem assays (depositor defined):AID2097, AID2223, AID489010, AID492950].

For assay [2], the target named is T3, Apoptotic protease-activating factor 1 (Homo sapiens, UniProt O14727).
T3 sequence (O14727 whole entry): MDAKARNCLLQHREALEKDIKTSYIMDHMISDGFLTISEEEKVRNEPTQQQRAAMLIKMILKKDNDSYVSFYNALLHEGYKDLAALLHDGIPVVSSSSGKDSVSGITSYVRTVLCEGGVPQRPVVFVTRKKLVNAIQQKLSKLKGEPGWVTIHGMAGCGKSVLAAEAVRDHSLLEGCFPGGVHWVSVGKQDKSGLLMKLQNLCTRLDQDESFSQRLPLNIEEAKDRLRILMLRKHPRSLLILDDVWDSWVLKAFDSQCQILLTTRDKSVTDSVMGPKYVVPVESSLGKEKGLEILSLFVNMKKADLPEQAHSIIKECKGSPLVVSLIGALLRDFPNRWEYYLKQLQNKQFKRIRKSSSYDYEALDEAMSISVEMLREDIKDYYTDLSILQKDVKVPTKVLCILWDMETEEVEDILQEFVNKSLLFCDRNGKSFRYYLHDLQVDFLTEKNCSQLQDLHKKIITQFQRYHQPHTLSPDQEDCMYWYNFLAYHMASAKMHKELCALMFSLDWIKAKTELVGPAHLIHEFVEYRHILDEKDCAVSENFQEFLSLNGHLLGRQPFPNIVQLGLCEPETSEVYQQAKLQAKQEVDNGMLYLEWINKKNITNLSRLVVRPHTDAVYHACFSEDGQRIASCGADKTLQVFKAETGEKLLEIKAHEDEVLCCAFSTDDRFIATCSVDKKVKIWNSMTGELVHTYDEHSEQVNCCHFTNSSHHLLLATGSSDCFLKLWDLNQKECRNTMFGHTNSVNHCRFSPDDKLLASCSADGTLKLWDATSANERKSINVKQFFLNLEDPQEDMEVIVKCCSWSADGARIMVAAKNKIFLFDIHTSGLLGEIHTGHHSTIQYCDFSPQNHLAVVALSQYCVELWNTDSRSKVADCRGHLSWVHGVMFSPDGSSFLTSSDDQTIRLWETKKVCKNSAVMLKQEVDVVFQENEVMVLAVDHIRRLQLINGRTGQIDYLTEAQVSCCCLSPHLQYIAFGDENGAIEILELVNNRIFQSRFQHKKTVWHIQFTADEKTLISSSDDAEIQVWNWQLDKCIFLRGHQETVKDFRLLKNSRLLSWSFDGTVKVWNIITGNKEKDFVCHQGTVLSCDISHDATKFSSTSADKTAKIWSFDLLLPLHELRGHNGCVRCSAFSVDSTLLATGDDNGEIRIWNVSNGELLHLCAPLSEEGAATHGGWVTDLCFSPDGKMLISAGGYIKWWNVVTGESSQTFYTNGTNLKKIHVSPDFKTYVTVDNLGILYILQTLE

With `CC(C)=CCC1=C(OCC(=O)O)C(=O)c2ccccc2C1=O`, the concentration at half-maximal activity (AC50) in assay [1] is 9.19 µM (active). Also, the 50% effective concentration (EC50) on Protein RecA was 7.75 µM (active). In addition, the IC50 in assay [2] is 6.11 µM (active).
With `Cc1[nH][nH]c(=O)c1C(c1c(C)[nH][nH]c1=O)c1cn(Cc2ccccc2Cl)c2ccccc12`, the AC50 in assay [1] is 0.242 µM (active). The EC50 at Protein RecA is 0.299 µM (active).
Turning to `Cc1cccc(NC2=C(NC(=O)c3ccccc3)C(=O)c3ccccc3C2=O)c1`, in assay [1], the concentration at half-maximal activity (AC50) is 3.96 µM (active). On Protein RecA, the EC50 was 1.71 µM (active). The 50% inhibitory concentration (IC50) in assay [2] was 13.4 µM (active).

Usually AC50 stands for the concentration at which the activity in the assay is half-maximal. The EC50 is the midpoint of the concentration-response curve. By IC50 is commonly meant the concentration that inhibits the measured activity by half.
